# Measured values published in patent publication US8729060B2, “Macrocyclic polyoxazole compounds and use thereof” (Rutgers, the State University of New Jersey, priority 2007, dated 2014).
# How the values were obtained:
# murine leukemia P388 = assay: MTT assay (Test C), murine leukemia P388; type: cell-based; conditions: Mus musculus, 96 h, 4 days, read-out: cytotoxic activity IC50
# Description: (§1) Test C. Evaluation of G-Quadruplex Stabilizers Using the MTT Assay.
# (§2) Cell lines are selected based upon one or more factors including data on their relative telomerase activity, varied organ sites, available comparative data, and their ability to form solid tumors in athymic nude mice. The advantage of an MTT assay is that the cytotoxic/cytostatic activities can be readily determined. Cells are cultured for 4 days at 37° C. followed by addition of MTT (3-[4,5-dimethylthiozol-2-yl]-2,5-diphenyltetrazolium bromide (Sigma) (0.1 mg/ml). Cells are treated with MTT for 3 hrs and then dissolved in 100 μl 100% DMSO. Absorbance is measured at OD570 using a microplate reader (Model 3550 UV from BIO-RAD). The MTT value is normalized to OD570 of cells treated with Cellfectin alone. Stock solutions of each compound are prepared. MTT assays are performed using spectrometric analysis and 96 well plates. Compound 258, a representative compound of formula I, was evaluated against a variety of cell lines using the MTT assay compound.
# [1] = test system: human nasopharyngeal carcinoma KB3-1; assay: MTT assay (Test C), human nasopharyngeal carcinoma KB3-1; type: cell-based; conditions: KB 3-1, 96 h, KB3-1, MTT, 4 days, read-out: cytotoxic activity IC50
# Description: as §1, §2
# [2] = test system: human lymphoblastoma RPMI 8402; assay: MTT assay (Test C), human lymphoblastoma RPMI 8402; type: cell-based; conditions: 96 h, RPMI 8402, MTT, 4 days, read-out: cytotoxic activity IC50
# Description: as §1, §2
# LAN1 = conditions: read-out: cytotoxicity IC50; cited from earlier work
# [3] = test system: natural bone marrow CD34-positive cells; conditions: cited from earlier work
# telomerase = conditions: read-out: telomerase inhibitory activity IC50; cited from earlier work
# LAN5 = conditions: read-out: cytotoxicity IC50; cited from earlier work
# MiaPaCa = conditions: read-out: cytotoxicity IC50; cited from earlier work
# K62 leukemia cells = conditions: cited from earlier work
# SK-N-AS = conditions: read-out: cytotoxicity IC50; cited from earlier work
# WAC2 = conditions: read-out: cytotoxicity IC50; cited from earlier work
# [4] = test system: human breast cancer cell lines HBC-4, BSY-1, HBC-5, MCF-7, and MDA-MB-231; conditions: range over HBC-4, BSY-1, HBC-5, MCF-7, MDA-MB-231; cited from earlier work
smiles,measurement,setting,value
"CC(C)[C@@H]1NC(=O)c2coc(n2)-c2coc(n2)-c2coc(n2)C/C=C/c2coc(n2)-c2coc(n2)-c2coc1n2 [Compound 258, Macrocyclic Hexaoxazole]",IC50,murine leukemia P388,45 nM
same,melting point,,195 to 197 °C (dec.)
same,IC50,[1],25 nM
same,IC50,[2],25 nM
Cc1oc2nc1-c1nc(co1)-c1nc(co1)-c1nc(co1)-c1nc(co1)-c1nc(co1)C1=NC(CS1)c1nc-2c(C)o1 (stereo not shown) [Telomestatin],IC50,LAN1,4000 nM
same,effect on BFU-E and CFU-GM,[3],much lesser effect
same,IC50,telomerase,5 nM
same,IC50,LAN5,2500 nM
same,IC50,MiaPaCa,500 nM
same,effect on plating efficiency,K62 leukemia cells,does suppress the plating efficiency
same,IC50,SK-N-AS,800 nM
same,IC50,WAC2,3200 nM
CC[C@H](C)[C@@H]1NC(=O)c2nc(oc2-c2ccccc2)-c2csc(n2)-c2coc(n2)-c2coc(n2)-c2coc(n2)CNC(=O)[C@@H](C(C)C)NC1=O [YM-216391],GI50,[4],15 to 33 nM
